In brackets after ≈: the same amount, converted by molar mass.
Tested on: Candida parapsilosis
Test: Antifungal activity against Candida parapsilosis GIM 2.190 assessed as inhibition of fungal growth by CLSI M27-A3 guidelines based method
Type: functional
Conditions: Lodderomyces parapsilosis

Compound	MIC80 [µg/mL]
CN(Cc1ccc(N2CCN(Cc3ccc(C(F)(F)F)cc3)CC2)cc1)CC(O)(Cn1cncn1)c1ccc(F)cc1F (centres undefined)	0.013 (≈ 0.0216 µM)
CN(Cc1ccc(N2CCN(Cc3cc(F)ccc3Br)CC2)cc1)CC(O)(Cn1cncn1)c1ccc(F)cc1F (centres undefined)	0.006 (≈ 0.00953 µM)
CN(Cc1ccc(N2CCN(Cc3ccc(Cl)cc3Br)CC2)cc1)CC(O)(Cn1cncn1)c1ccc(F)cc1F (centres undefined)	0.006 (≈ 0.00929 µM)
CN(Cc1ccc(N2CCN(Cc3ccc(C(C)(C)C)cc3)CC2)cc1)CC(O)(Cn1cncn1)c1ccc(F)cc1F (centres undefined)	0.006 (≈ 0.0102 µM)

Tested on: Candida tropicalis
Test: Antifungal activity against Candida tropicalis GIM 2.183 assessed as inhibition of fungal growth by CLSI M27-A3 guidelines based method
Type: functional
Conditions: not given

Compound	MIC80 [µg/mL]
CN(Cc1ccc(N2CCN(Cc3ccc(C(F)(F)F)cc3)CC2)cc1)CC(O)(Cn1cncn1)c1ccc(F)cc1F (centres undefined)	0.013 (≈ 0.0216 µM)
CN(Cc1ccc(N2CCN(Cc3cc(F)ccc3Br)CC2)cc1)CC(O)(Cn1cncn1)c1ccc(F)cc1F (centres undefined)	0.006 (≈ 0.00953 µM)
CN(Cc1ccc(N2CCN(Cc3ccc(Cl)cc3Br)CC2)cc1)CC(O)(Cn1cncn1)c1ccc(F)cc1F (centres undefined)	0.006 (≈ 0.00929 µM)
CN(Cc1ccc(N2CCN(Cc3ccc(C(C)(C)C)cc3)CC2)cc1)CC(O)(Cn1cncn1)c1ccc(F)cc1F (centres undefined)	0.013 (≈ 0.0221 µM)

Tested on: Candida albicans
Test: Antifungal activity against fluconazole-resistant Candida albicans clinical isolate 901 assessed as inhibition of fungal growth by CLSI M27-A3 guidelines based method
Type: functional
Conditions: not given

Compound	MIC80 [µg/mL]
CN(Cc1ccc(N2CCN(Cc3ccc(C(F)(F)F)cc3)CC2)cc1)CC(O)(Cn1cncn1)c1ccc(F)cc1F (centres undefined)	> 64
CN(Cc1ccc(N2CCN(Cc3cc(F)ccc3Br)CC2)cc1)CC(O)(Cn1cncn1)c1ccc(F)cc1F (centres undefined)	> 64
CN(Cc1ccc(N2CCN(Cc3ccc(Cl)cc3Br)CC2)cc1)CC(O)(Cn1cncn1)c1ccc(F)cc1F (centres undefined)	> 64
CN(Cc1ccc(N2CCN(Cc3ccc(C(C)(C)C)cc3)CC2)cc1)CC(O)(Cn1cncn1)c1ccc(F)cc1F (centres undefined)	> 64

Tested on: Nakaseomyces glabratus
Test: Antifungal activity against Candida glabrata assessed as inhibition of fungal growth by CLSI M27-A3 guidelines based method
Type: functional
Conditions: not given

Compound	MIC80 [µg/mL]
CN(Cc1ccc(N2CCN(Cc3ccc(C(F)(F)F)cc3)CC2)cc1)CC(O)(Cn1cncn1)c1ccc(F)cc1F (centres undefined)	0.1 (≈ 0.166 µM)
CN(Cc1ccc(N2CCN(Cc3cc(F)ccc3Br)CC2)cc1)CC(O)(Cn1cncn1)c1ccc(F)cc1F (centres undefined)	0.1 (≈ 0.159 µM)
CN(Cc1ccc(N2CCN(Cc3ccc(C(C)(C)C)cc3)CC2)cc1)CC(O)(Cn1cncn1)c1ccc(F)cc1F (centres undefined)	0.1 (≈ 0.17 µM)

Tested on: Pichia kudriavzevii
Test: Antifungal activity against Candida krusei GIM 2.1 assessed as inhibition of fungal growth by CLSI M27-A3 guidelines based method
Type: functional
Conditions: not given

Compound	MIC80 [µg/mL]
CN(Cc1ccc(N2CCN(Cc3cc(F)ccc3Br)CC2)cc1)CC(O)(Cn1cncn1)c1ccc(F)cc1F (centres undefined)	0.1 (≈ 0.159 µM)

Tested on: Candida albicans
Test: Antifungal activity against Candida albicans GIM 2.194 assessed as inhibition of fungal growth by CLSI M27-A3 guidelines based method
Type: functional
Conditions: not given

Compound	MIC80 [µg/mL]
CN(Cc1ccc(N2CCN(Cc3ccc(C(F)(F)F)cc3)CC2)cc1)CC(O)(Cn1cncn1)c1ccc(F)cc1F (centres undefined)	0.013 (≈ 0.0216 µM)
CN(Cc1ccc(N2CCN(Cc3cc(F)ccc3Br)CC2)cc1)CC(O)(Cn1cncn1)c1ccc(F)cc1F (centres undefined)	0.025 (≈ 0.0397 µM)
CN(Cc1ccc(N2CCN(Cc3ccc(Cl)cc3Br)CC2)cc1)CC(O)(Cn1cncn1)c1ccc(F)cc1F (centres undefined)	0.006 (≈ 0.00929 µM)
CN(Cc1ccc(N2CCN(Cc3ccc(C(C)(C)C)cc3)CC2)cc1)CC(O)(Cn1cncn1)c1ccc(F)cc1F (centres undefined)	0.006 (≈ 0.0102 µM)

Tested on: Candida albicans
Test: Antifungal activity against fluconazole-resistant Candida albicans clinical isolate 904 assessed as inhibition of fungal growth by CLSI M27-A3 guidelines based method
Type: functional
Conditions: not given

Compound	MIC80 [µg/mL]
CN(Cc1ccc(N2CCN(Cc3ccc(C(F)(F)F)cc3)CC2)cc1)CC(O)(Cn1cncn1)c1ccc(F)cc1F (centres undefined)	32 (≈ 53.3 µM)
CN(Cc1ccc(N2CCN(Cc3cc(F)ccc3Br)CC2)cc1)CC(O)(Cn1cncn1)c1ccc(F)cc1F (centres undefined)	8 (≈ 12.7 µM)
CN(Cc1ccc(N2CCN(Cc3ccc(Cl)cc3Br)CC2)cc1)CC(O)(Cn1cncn1)c1ccc(F)cc1F (centres undefined)	32 (≈ 49.5 µM)
CN(Cc1ccc(N2CCN(Cc3ccc(C(C)(C)C)cc3)CC2)cc1)CC(O)(Cn1cncn1)c1ccc(F)cc1F (centres undefined)	32 (≈ 54.4 µM)

Tested on: Candida albicans
Test: Antifungal activity against fluconazole-resistant Candida albicans clinical isolate 100 assessed as inhibition of fungal growth by CLSI M27-A3 guidelines based method
Type: functional
Conditions: not given

Compound	MIC80 [µg/mL]
CN(Cc1ccc(N2CCN(Cc3ccc(C(F)(F)F)cc3)CC2)cc1)CC(O)(Cn1cncn1)c1ccc(F)cc1F (centres undefined)	8 (≈ 13.3 µM)
CN(Cc1ccc(N2CCN(Cc3cc(F)ccc3Br)CC2)cc1)CC(O)(Cn1cncn1)c1ccc(F)cc1F (centres undefined)	2 (≈ 3.18 µM)
CN(Cc1ccc(N2CCN(Cc3ccc(Cl)cc3Br)CC2)cc1)CC(O)(Cn1cncn1)c1ccc(F)cc1F (centres undefined)	8 (≈ 12.4 µM)
CN(Cc1ccc(N2CCN(Cc3ccc(C(C)(C)C)cc3)CC2)cc1)CC(O)(Cn1cncn1)c1ccc(F)cc1F (centres undefined)	8 (≈ 13.6 µM)

Tested on: Candida albicans
Test: Antifungal activity against fluconazole-resistant Candida albicans clinical isolate 103 assessed as inhibition of fungal growth by CLSI M27-A3 guidelines based method
Type: functional
Conditions: not given

Compound	MIC80 [µg/mL]
CN(Cc1ccc(N2CCN(Cc3ccc(C(F)(F)F)cc3)CC2)cc1)CC(O)(Cn1cncn1)c1ccc(F)cc1F (centres undefined)	32 (≈ 53.3 µM)
CN(Cc1ccc(N2CCN(Cc3cc(F)ccc3Br)CC2)cc1)CC(O)(Cn1cncn1)c1ccc(F)cc1F (centres undefined)	8 (≈ 12.7 µM)
CN(Cc1ccc(N2CCN(Cc3ccc(Cl)cc3Br)CC2)cc1)CC(O)(Cn1cncn1)c1ccc(F)cc1F (centres undefined)	> 64
CN(Cc1ccc(N2CCN(Cc3ccc(C(C)(C)C)cc3)CC2)cc1)CC(O)(Cn1cncn1)c1ccc(F)cc1F (centres undefined)	8 (≈ 13.6 µM)

Tested on: Cryptococcus neoformans
Test: Antifungal activity against Cryptococcus neoformans CGMCC 2.3161 assessed as inhibition of fungal growth by CLSI M27-A3 guidelines based method
Type: functional
Conditions: not given

Compound	MIC80 [µg/mL]
CN(Cc1ccc(N2CCN(Cc3ccc(C(F)(F)F)cc3)CC2)cc1)CC(O)(Cn1cncn1)c1ccc(F)cc1F (centres undefined)	0.1 (≈ 0.166 µM)
CN(Cc1ccc(N2CCN(Cc3ccc(C(C)(C)C)cc3)CC2)cc1)CC(O)(Cn1cncn1)c1ccc(F)cc1F (centres undefined)	0.1 (≈ 0.17 µM)

Tested on: Candida albicans
Test: Antifungal activity against fluconazole and iodiconazole resistant Candida albicans clinical isolate 17# assessed as inhibition of fungal growth by CLSI M27-A3 guidelines based method
Type: functional
Conditions: not given

Compound	MIC80 [µg/mL]
CN(Cc1ccc(N2CCN(Cc3ccc(C(F)(F)F)cc3)CC2)cc1)CC(O)(Cn1cncn1)c1ccc(F)cc1F (centres undefined)	0.125 (≈ 0.208 µM)
CN(Cc1ccc(N2CCN(Cc3cc(F)ccc3Br)CC2)cc1)CC(O)(Cn1cncn1)c1ccc(F)cc1F (centres undefined)	0.25 (≈ 0.397 µM)
CN(Cc1ccc(N2CCN(Cc3ccc(Cl)cc3Br)CC2)cc1)CC(O)(Cn1cncn1)c1ccc(F)cc1F (centres undefined)	1 (≈ 1.55 µM)
CN(Cc1ccc(N2CCN(Cc3ccc(C(C)(C)C)cc3)CC2)cc1)CC(O)(Cn1cncn1)c1ccc(F)cc1F (centres undefined)	0.125 (≈ 0.212 µM)

Tested on: Candida albicans
Test: Antifungal activity against fluconazole-resistant Candida albicans clinical isolate 632 assessed as inhibition of fungal growth by CLSI M27-A3 guidelines based method
Type: functional
Conditions: not given

Compound	MIC80 [µg/mL]
CN(Cc1ccc(N2CCN(Cc3ccc(C(F)(F)F)cc3)CC2)cc1)CC(O)(Cn1cncn1)c1ccc(F)cc1F (centres undefined)	16 (≈ 26.6 µM)
CN(Cc1ccc(N2CCN(Cc3cc(F)ccc3Br)CC2)cc1)CC(O)(Cn1cncn1)c1ccc(F)cc1F (centres undefined)	16 (≈ 25.4 µM)
CN(Cc1ccc(N2CCN(Cc3ccc(Cl)cc3Br)CC2)cc1)CC(O)(Cn1cncn1)c1ccc(F)cc1F (centres undefined)	32 (≈ 49.5 µM)
CN(Cc1ccc(N2CCN(Cc3ccc(C(C)(C)C)cc3)CC2)cc1)CC(O)(Cn1cncn1)c1ccc(F)cc1F (centres undefined)	16 (≈ 27.2 µM)

Tested on: Candida albicans
Test: Antifungal activity against fluconazole-resistant Candida albicans clinical isolate 311 assessed as inhibition of fungal growth by CLSI M27-A3 guidelines based method
Type: functional
Conditions: not given

Compound	MIC80 [µg/mL]
CN(Cc1ccc(N2CCN(Cc3ccc(C(F)(F)F)cc3)CC2)cc1)CC(O)(Cn1cncn1)c1ccc(F)cc1F (centres undefined)	32 (≈ 53.3 µM)
CN(Cc1ccc(N2CCN(Cc3cc(F)ccc3Br)CC2)cc1)CC(O)(Cn1cncn1)c1ccc(F)cc1F (centres undefined)	32 (≈ 50.8 µM)
CN(Cc1ccc(N2CCN(Cc3ccc(Cl)cc3Br)CC2)cc1)CC(O)(Cn1cncn1)c1ccc(F)cc1F (centres undefined)	> 64
CN(Cc1ccc(N2CCN(Cc3ccc(C(C)(C)C)cc3)CC2)cc1)CC(O)(Cn1cncn1)c1ccc(F)cc1F (centres undefined)	8 (≈ 13.6 µM)

Tested on: Candida albicans
Test: Antifungal activity against fluconazole-resistant Candida albicans CaR assessed as inhibition of fungal growth by CLSI M27-A3 guidelines based method
Type: functional
Conditions: not given

Compound	MIC80 [µg/mL]
CN(Cc1ccc(N2CCN(Cc3ccc(C(F)(F)F)cc3)CC2)cc1)CC(O)(Cn1cncn1)c1ccc(F)cc1F (centres undefined)	0.063 (≈ 0.105 µM)
CN(Cc1ccc(N2CCN(Cc3cc(F)ccc3Br)CC2)cc1)CC(O)(Cn1cncn1)c1ccc(F)cc1F (centres undefined)	0.063 (≈ 0.1 µM)
CN(Cc1ccc(N2CCN(Cc3ccc(Cl)cc3Br)CC2)cc1)CC(O)(Cn1cncn1)c1ccc(F)cc1F (centres undefined)	0.125 (≈ 0.194 µM)
CN(Cc1ccc(N2CCN(Cc3ccc(C(C)(C)C)cc3)CC2)cc1)CC(O)(Cn1cncn1)c1ccc(F)cc1F (centres undefined)	0.063 (≈ 0.107 µM)

Tested on: Candida albicans
Test: Antifungal activity against Candida albicans SC5314 assessed as inhibition of fungal growth by CLSI M27-A3 guidelines based method
Type: functional
Conditions: not given

Compound	MIC80 [µg/mL]
CN(Cc1ccc(N2CCN(Cc3ccc(C(F)(F)F)cc3)CC2)cc1)CC(O)(Cn1cncn1)c1ccc(F)cc1F (centres undefined)	0.013 (≈ 0.0216 µM)
CN(Cc1ccc(N2CCN(Cc3cc(F)ccc3Br)CC2)cc1)CC(O)(Cn1cncn1)c1ccc(F)cc1F (centres undefined)	0.013 (≈ 0.0207 µM)
CN(Cc1ccc(N2CCN(Cc3ccc(Cl)cc3Br)CC2)cc1)CC(O)(Cn1cncn1)c1ccc(F)cc1F (centres undefined)	0.006 (≈ 0.00929 µM)
CN(Cc1ccc(N2CCN(Cc3ccc(C(C)(C)C)cc3)CC2)cc1)CC(O)(Cn1cncn1)c1ccc(F)cc1F (centres undefined)	0.013 (≈ 0.0221 µM)

Reference: ChEMBL document CHEMBL6092162, “Identification of novel and potent triazoles targeting CYP51 for antifungal: Design, synthesis, and biological study” (Eur J Med Chem, 2024)
